Converted amounts (≈) assume the structure as drawn. Peptide text beside a SMILES is read from it. * marks the point of attachment. Octanoyl = CCCCCCCC(=O)*; Hexanoyl = CCCCCC(=O)*; Butyryl = CCCC(=O)*
Columns and labels:
[1] = system: S. typhimurium C7731; assay type: cell-based, Salmonella typhimurium; details: C7731, 20 h
From the text: (§1) Escherichia coli ATCC25922, E. coli UB1005, Pseudomonas aeruginosa ATCC27853, Salmonella typhimurium ATCC14028, S. typhimurium C7731, Staphylococcus aureus ATCC29213, Methicillin-resistant S. aureus (MRSA) ATCC43300, S. epidermidis ATCC12228, and Enterococcus faecalis ATCC29212 were stored by the institute of animal nutrition, Northeast Agricultural University (Harbin, China). Multidrug-Resistant E. coli HP73 and E. coli HP74 were clinically isolated from swine-derived Escherichia coli and stored by the institute of animal nutrition, Northeast Agricultural University (Harbin, China).
(§2) The MICs were determined using a broth microdilution method with reference to Clinical and Laboratory Standards Institute (CLSI) guidelines ([Wiegand et al., 2008]). After a two-fold serial dilution of the peptides (50 μl, dilution buffer: 0.01% acetic acid containing 0.2% BSA) prepared in a 96-well plate, a series of an equal volume of bacterial solution (50 μl) prepared in Mueller-Hinton broth (MHB) were added to the same 96-well plate, and the final bacterial inoculum size in each well of the 96-well plate was approximately 5 × 10^5 CFU/ml. As positive and negative controls, bacteria solution without peptides and blank samples without bacteria were prepared in the same 96-well plate. […] The lowest peptide concentration at which there was no increase in optical density was referred to as the MIC.

[2] = system: S. typhimurium 14028; assay type: cell-based, Salmonella typhimurium; details: 14028, 20 h
From the text: as §1, §2

[3] = system: S. epidermidis 12228; assay type: cell-based; details: 12228, 20 h
From the text: as §1, §2

[4] = system: MRSA 43300; assay type: cell-based, Methicillin-resistant S. aureus; details: 43300, 20 h
From the text: as §1, §2

[5] = system: S. aureus 29213; assay type: cell-based, Staphylococcus aureus; details: 29213, 20 h
From the text: as §1, §2

[6] = system: E. faecalis 29212; assay type: cell-based, Enterococcus faecalis; details: 29212, 20 h
From the text: as §1, §2

[7] = system: E. coli 25922; assay type: cell-based, Escherichia coli; details: 25922, 20 h
From the text: as §1, §2

[8] = system: E. coli UB1005; assay type: cell-based, Escherichia coli; details: UB1005, 20 h
From the text: as §1, §2

[9] = system: HEK293T; experiment: MTT cytotoxicity assay; assay type: cell-based, human
Description: (§3) 3-(4,5-dimethylthiozol-2-yl)-2,5-diphenyltetrazolium bromide (MTT) assay and live/dead cell staining assay were conducted to assess the peptide cytotoxicity. For the MTT assay, cell lines were seeded and passaged twice in high-glucose Dulbecco’s modified Eagle’s medium (DMEM, containing 100 μg/ml streptomycin, 100 U/ml penicillin, and 10% vol/vol fetal bovine serum) or Dulbecco’s Modified Eagle Medium/Nutrient Mixture F-12 (DMEM/F-12, containing 100 μg/ml streptomycin, 100 U/ml penicillin, and 10% vol/vol fetal bovine serum) at a 5% CO2 incubator (37°C). The cells (approximately 50,000 cells per well) were cultured in a 96-well plate at a 5% CO2 incubator for 1 day. Then various concentrations of peptide solutions (50 μl) were added to the plate and incubated for another 1 day. The cells solution without peptides and blank samples without cells and peptides were prepared in the same 96-well plate as positive and negative controls, respectively. Subsequently, MTT (0.5 mg/ml, 20 μl per well) was added and the plate was incubated for another 4 h. Removed all supernatant from the plate and added 150 μl of dimethyl sulfoxide. Finally, a microplate reader (Tecan GENios F129004, Austria) was used to record the absorbance data at OD570 nm. Melittin was employed as a control peptide. The cell viability was calculated using the previously described equation ([Lai et al., 2021]).

[10] = system: 9 bacterial strains; experiment: Geometric mean MIC over the 9 bacterial strains; assay type: cell-based; details: geometric mean of the 9 strains of Table 1
Description: as §2

[11] = system: P. aeruginosa 27853; assay type: cell-based, Pseudomonas aeruginosa; details: 27853, 20 h
From the text: as §1, §2

[12] = system: IPEC-J2; experiment: MTT cytotoxicity assay; assay type: cell-based, porcine
Description: as §3

[13] = system: E. coli HP73; experiment: microbe, parasite or virus in culture; assay type: cell-based, Escherichia coli; details: HP73, 20 h; read-out: MICs, E. coli HP73
From the text: as §1, §2

[14] = system: E. coli HP74; experiment: microbe, parasite or virus in culture; assay type: cell-based, Escherichia coli; details: HP74, 20 h; read-out: MICs, E. coli HP74
From the text: as §1, §2

[15] = system: HEK293; experiment: Live/dead cell staining (calcein-AM/PI); assay type: cell-based, human; details: peptide concentration less than 64 μM
From the text: For live/dead cell staining assay, HEK293 cell lines, calcein-AM, and propidium iodide (PI) were employed to assess the cell viability. The processes that come next are the same as in the prior report ([Lai et al., 2021]). There were two technical replicates used in the experiment.

[16] = molecular target: proteinase K (Parengyodontium album, UniProt P06873); experiment: Proteolytic stability, tricine-SDS-PAGE; assay type: in vitro ADME; details: peptide 2.56 mM + 500 μg/ml protease (equal volumes), 16.5% tricine-SDS-PAGE
Sequence of proteinase K (P06873 106-384): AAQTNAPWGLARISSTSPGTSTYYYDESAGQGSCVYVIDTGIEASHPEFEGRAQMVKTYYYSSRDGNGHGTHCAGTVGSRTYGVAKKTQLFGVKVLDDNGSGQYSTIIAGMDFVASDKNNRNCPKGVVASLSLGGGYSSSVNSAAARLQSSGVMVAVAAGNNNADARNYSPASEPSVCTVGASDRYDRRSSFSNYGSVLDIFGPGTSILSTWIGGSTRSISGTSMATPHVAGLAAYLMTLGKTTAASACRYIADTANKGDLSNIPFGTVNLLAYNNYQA
Description: 16.5% tricine−SDS − PAGE was used to evaluate the proteolytic stability of the peptides. The peptides (2.56 mM, 50 μl) were incubated with protease (500 μg/ml, 50 μl) at 37°C. After incubating for 1, 2, 4, or 8 h, the mixture (20 μl) was drawn out and placed in a bath of boiling water for 5 min. The mixture was then diluted to the suitable concentration for 16.5% tricine-SDS-PAGE analysis.

[17] = at the test concentrations, 1 day incubation
[18] = peptide concentration less than 64 μM

SMILES	MICs, S. typhimurium C7731 [1]	MICs, S. typhimurium 14028 [2]	MICs, S. epidermidis 12228 [3]	MICs, MRSA 43300 [4]	MICs, S. aureus 29213 [5]	MICs, E. faecalis 29212 [6]	MICs, E. coli 25922 [7]	MICs, E. coli UB1005 [8]	GM, geometric mean MICs from the 9 bacterial strains [10]	MICs, P. aeruginosa 27853 [11]	MIC [13]	MIC [14]	also measured
CCCC(=O)NCCCC[C@H](NC(=O)[C@H](CC(C)C)NC(=O)[C@H](CCCCN)NC(=O)[C@H](CCCCN)NC(=O)[C@H](CC(C)C)NC(=O)[C@H](CCCCNC(=O)CCC)NC(=O)[C@H](CCCCN)NC(=O)[C@H](CCCCN)NC(=O)[C@H](CC(C)C)NC(=O)[C@H](CCCCN)NC(=O)[C@H](CCCCN)NC(=O)[C@H](CC(C)C)NC(=O)[C@@H](N)Cc1c[nH]c2ccccc12)C(=O)N[C@@H](CCCCN)C(=O)N[C@@H](CCCCN)C(=O)O [WL-C4] (H-WLKKLKKK(Butyryl)LKKLK(Butyryl)KK-OH)	4 µM	4 µM	16 µM	16 µM	16 µM	32 µM	8 µM	4 µM	8.00 µM	2 µM			Cytotoxicity toward HEK293T [9, 17]: no significant cytotoxicity; Cytotoxicity toward IPEC-J2 [12, 17]: no significant cytotoxicity
CCCCCC(=O)NCCCC[C@H](NC(=O)[C@H](CC(C)C)NC(=O)[C@H](CCCCN)NC(=O)[C@H](CCCCN)NC(=O)[C@H](CC(C)C)NC(=O)[C@H](CCCCNC(=O)CCCCC)NC(=O)[C@H](CCCCN)NC(=O)[C@H](CCCCN)NC(=O)[C@H](CC(C)C)NC(=O)[C@H](CCCCN)NC(=O)[C@H](CCCCN)NC(=O)[C@H](CC(C)C)NC(=O)[C@@H](N)Cc1c[nH]c2ccccc12)C(=O)N[C@@H](CCCCN)C(=O)N[C@@H](CCCCN)C(=O)O [WL-C6] (H-WLKKLKKK(Hexanoyl)LKKLK(Hexanoyl)KK-OH)	4 µM	2 µM	4 µM	4 µM	4 µM	4 µM	4 µM	4 µM	3.43 µM	2 µM	4 µM (≈ 8.54 µg/mL)	4 µM (≈ 8.54 µg/mL)	Toxicity toward HEK293 [15]: negligible toxicity; Toxicity toward HEK293T [9, 18]: negligible toxicity; Stability to proteinase K (band on gel) ([16]; 37°C, 1, 2, 4, 8 h): cleaved by proteinase K; Digestion period beyond which the bands gradually vanished, proteinase K ([16]; 37°C): > 1 h; Toxicity toward IPEC-J2 [12, 18]: negligible toxicity
CCCCCCCC(=O)NCCCC[C@H](NC(=O)[C@H](CC(C)C)NC(=O)[C@H](CCCCN)NC(=O)[C@H](CCCCN)NC(=O)[C@H](CC(C)C)NC(=O)[C@H](CCCCNC(=O)CCCCCCC)NC(=O)[C@H](CCCCN)NC(=O)[C@H](CCCCN)NC(=O)[C@H](CC(C)C)NC(=O)[C@H](CCCCN)NC(=O)[C@H](CCCCN)NC(=O)[C@H](CC(C)C)NC(=O)[C@@H](N)Cc1c[nH]c2ccccc12)C(=O)N[C@@H](CCCCN)C(=O)N[C@@H](CCCCN)C(=O)O [WL-C8] (H-WLKKLKKK(Octanoyl)LKKLK(Octanoyl)KK-OH)	4 µM	4 µM	4 µM	4 µM	4 µM	4 µM	4 µM	2 µM	3.70 µM	4 µM	4 µM (≈ 8.76 µg/mL)	4 µM (≈ 8.76 µg/mL)	Concentration above which significant cytotoxicity toward HEK293T ([9]; 1 day incubation): greater than 32 μM; Concentration above which significant cytotoxicity toward IPEC-J2 ([12]; 1 day incubation): greater than 32 μM
